According to US20230227476A1, “GALLIUM-SALOPHEN ANTIMICROBIAL COMPOUNDS AND METHODS OF USE THEREOF” (priority 2020, published 2023):
Values joined by “and” are separate entries in the source; they are usually repeats but may differ in a detail not shown here. Equal values may be shown once. “Also recorded” adds a separate entry of the source.

How the values were obtained:
[1] = biological target: T1, HasAp (Pseudomonas aeruginosa, UniProt G3XD33); assay: Binding affinity to HasAp by fluorescence quenching; conditions: for Kd: read-out: KD (nM), binding affinities of ligands to HasAp, fluorescence quenching, 1 μM apo-HasAp, 20 mM sodium phosphate pH 7.4, 25° C.; for binding to HasAp weaker than heme: relative to heme
T1 sequence (G3XD33 entry or part of it): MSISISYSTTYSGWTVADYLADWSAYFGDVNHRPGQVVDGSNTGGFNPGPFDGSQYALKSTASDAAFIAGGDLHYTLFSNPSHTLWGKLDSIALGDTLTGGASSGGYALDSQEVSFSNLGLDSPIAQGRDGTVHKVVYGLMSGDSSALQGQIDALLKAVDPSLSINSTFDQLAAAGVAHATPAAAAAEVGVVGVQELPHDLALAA
Description: Binding Affinity Determination by Fluorescence Quenching. Binding affinities were determined on an ISS K2 multifrequency fluorometer in L-format using 1 cm quartz cuvettes. To a 1 μM solution of apo-HasAp in 20 mM sodium phosphate buffer (pH 7.4, 25° C.) was titrated ligand of interest. Emission spectra were recorded (300-500 nm) following excitation at 295 nm. The decrease in maximum emission was plotted against the ligand concentration (accounting for dilution) and fit to one-site binding using GraphPad Prism 8.
Determine binding affinities (KD) by FQ. KD values of all synthesized compounds are calculated by FQ using previously described methods. Binding affinities are determined in a final volume of 200 μL in black flat-bottom 96-well plates using microplate reader. HasAp concentration is kept at 1.0 μM in Tris-HCl buffer (20 mM, pH 8.0). Inhibitors solvated in DMSO are added across a concentration range of 0.01 to 100 μM. The HasAp excitation (295 nm) emission spectrum is recorded from 300-500 nm. The KD values are calculated from plots of total binding vs. ligand concentration, where total binding corresponds to the fraction of binding sites represented by the decrease in fluorescence at the maximum emission (332 nm). All experiments are performed in triplicate.

[2] = tested on: Has signaling cascade (hasR promoter); assay: hasR-lacZ β-galactosidase transcriptional reporter assay; assay type: cell-based, Pseudomonas aeruginosa; conditions: for transcriptional activation of the hasR promoter (Has signaling): 1 μM pre-formed HasAp complex, relative to heme (holo-HasAp)
Description: Transcriptional Reporter Assay. The chromosomal fusions of the PhasR-lacZ and promoterless lacZ gene were previously constructed and used to report on transcriptional activation of the Has signaling cascade. For all β-gal assays, strains were grown overnight in 50 mL LB broth with shaking at 37° C. Cells were harvested by centrifugation and resuspended in M9 media. Strains were then inoculated at A600=0.05 in triplicate in 25 mL of M9 minimal medium and cultured for 3 h to deplete bacterial iron stores. Growth cultures were then supplemented with 1 μM of either holo-HasAp, GaPPIX-HasAp, FeSal-HasAp or GaSal-HasAp. Aliquots (1 mL) at 0 (just prior to supplementation), 2 and 5 h post supplementation were harvested and assayed for […] activity as described previously.
Testing new GaSal analogs (KD<1 μM) for inhibition of heme sensing by transcriptional reporter assays. Transcriptional reporter assays to determine inhibition of the dependent CSS cascade are performed. It was previously shown that GaSal-HasAp inhibits transcriptional activation of the has operon (FIG. 10B). Furthermore, as the deletion of hasR attenuates virulence, inhibition of the signaling pathway combined with decreased heme uptake is a viable therapeutic strategy. PAO1 hasR-lacZ cultures are grown under iron limiting conditions in defined media (M9 or SSM) pelleted and washed to remove exogenous HasAp. Cells are resuspended to a final OD600 of 0.05 and supplemented with 1.0 μM HasAp reconstituted with heme or selected GaSal derivatives. Samples are removed at various times (0.5-5 h) and assayed for β-Gal activity and corrected for differences in OD600. Competition assays are also performed in the presence of varying heme and salophen concentrations.

[3] = tested on: P. aeruginosa (PiuA); conditions: cited from earlier work
[4] = tested on: P. aeruginosa PAO1 and mutants; assay: Growth curves / antibacterial activity in M9 minimal medium; assay type: cell-based, Pseudomonas aeruginosa; conditions: M9 minimal media, 96-well plate
Description: Growth Curves. P. aeruginosa strains were grown overnight in 50 mL LB Broth with shaking at 37° C. Cells were harvested by centrifugation and resuspended in M9 minimal medium. Strains were then inoculated at A600=0.05 in 10 mL M9 minimal medium and grown for 3 h to deplete bacterial iron stores. Cultures were then plated in 96-well plates (Costar clear, flat-bottom with lid, Corning Inc) at A600≈0.05 to a final volume of 200 μL in M9 medium. Supplements (2 μL) were added as 100× stock solutions. Growth curves were recorded at 600 nm with a Biotek Synergy™ HT plate reader over 16 h of growth with shaking at 37° C. To account for background absorbance, blank wells were prepared with the same supplements but only M9 medium without culture. The blank wells were subtracted from the average of three growth wells per condition.

[5] = biological target: T1, HasAp; assay: Circular dichroism thermal denaturation of HasAp; conditions: circular dichroism at 222 nm, 10 μM HasAp
Description: Circular Dichroism. Circular dichroism experiments were performed on a Jasco J-810 spectropolarimeter using 1 mm quartz cuvettes. All samples were recorded with 10 μM HasAp in 10 mM potassium phosphate (pH 7.4) at 25° C. from 190 to 260 nm at a scan rate of 50 nm/min, with each spectrum representing 5 accumulations. Data were acquired at […] resolution and 10 nm bandwidth. The mean residue ellipticity (degrees cm^2 dmol^−1) was calculated using CDPRO software as recommended by Jasco. Thermal denaturation studies were performed over a temperature range of 20-90° C. at 222 nm. Melting temperatures were determined by fitting denaturation data to a Boltzmann-Sigmoidal distribution in GraphPad Prism 8.

[6] = tested on: HasAp; assay: Saturation transfer difference NMR in PAO1 ΔhasAp supernatant; assay type: binding, Pseudomonas aeruginosa; conditions: 1H NMR, 24 hr
Description: (§1) Saturation Transfer Difference NMR. PAO1 ΔhasAp was cultured overnight from a single colony in LB Broth. The cells were harvested by centrifugation and resuspended in M9 Minimal Media. 10 mL of M9 were inoculated at A600˜0.05 and grown for 3 h. Cell-free supernatant was obtained by centrifugation and subsequent filter-sterilization by a […] syringe filter. Supernatant was then used as the solvent for subsequent STD experiments. Final sample volume contained 600 μL of supernatant with or without 10 μM HasAp (as a negative control) and 5% D2O for solvent locking.
(§2) The STD experiments were performed at 25° C. on an Agilent DD2 500 MHz spectrometer. The vendor supplied pulse sequences, dpfgse_satxfer.c was used, the on- and off-resonance fids are subtracted in-place through phase-cycling, to yield only the difference fid. Selective saturation was performed for 2.5 s and consisted of 50 ms Gaussian pulses separated by a 1-ms delay at a field strength of 50 Hz. […]
(§3) Determine the binding mode of GaSal and top derivatives by STD-, ^1H-^15N HSQC-NMR, and HDX-MS. […] Following incubation (4 h) 4,4-dimethyl-4-silapentane-1-sulfonic acid (DSS, 3 μL in D20) is added as internal standard and spectra recorded as reported. […] Combined chemical shift differences between the apo and each of the titration points are calculated using the following equation: […]

[7] = biological target: T1, HasAp; assay: as above; assay type: binding; conditions: GaSal 1 mM, HasAp 10 μM, PAO1 ΔhasAp supernatant
Description: as §1, §2, §3

Structure (SMILES)	Kd [1]	binding to HasAp weaker than heme [1]	transcriptional activation of the hasR promoter (Has signaling) [2]	melting temperature of HasAp [5]	other results
Oc1ccccc1C=Nc1ccccc1N=Cc1ccccc1O.[Fe+3] [FeSal, FeSal Chloride]	1100 nM and 1050 nM	~3 fold	inhibited the holo-HasAp activation of the cell surface signaling cascade; also recorded: inhibition of transcriptional activation relative to heme or GaPPIX; also recorded: decreased transcriptional activation relative to heme	–	–
CC(C)(O/N=C(\C(=O)N[C@@H]1C(=O)N2C(C(=O)[O-])=C(C[N+]3(CCNC(=O)c4ccc(O)c(O)c4Cl)CCCC3)CS[C@H]12)c1csc(N)n1)C(=O)O [Cefiderocol]	–	–	–	–	resistance rates ([3]; at 10×MIC): < 7×10^−9; increase in MIC ([3]; mutations with a deficiency in PiuA): ~20 fold
C=CC1=C(C)c2cc3[nH]c(cc4nc(cc5[nH]c(cc1n2)c(C)c5CCC(=O)O)C(CCC(=O)O)=C4C)c(C)c3C=C.[Ga+3] [GaPPIX, Gallium protoporphyrin IX]	280 ± 30 nM	–	no inhibition of transcriptional activation relative to heme; also recorded: increased (2 h) or similar transcriptional activation to heme	–	growth of P. aeruginosa PAO1 [4]: inhibits growth
C=CC1=C(C)c2cc3[nH]c(cc4nc(cc5[nH]c(cc1n2)c(C)c5CCC(=O)O)C(CCC(=O)O)=C4C)c(C)c3C=C.[Fe+3] [Heme]	350 ± 50 nM	–	–	> 90 °C	–
Oc1ccccc1C=Nc1ccccc1N=Cc1ccccc1O.[Ga+3] [GaSal, GaSalophen Nitrate]	1110 ± 220 nM	~3 fold	inhibited the holo-HasAp activation of the cell surface signaling cascade; also recorded: inhibition of transcriptional activation relative to heme or GaPPIX; also recorded: decreased transcriptional activation relative to heme	65 °C	stability in PAO1 ΔhasAp supernatant [6]: still intact after 24 hr; STD NMR saturation transfer from HasAp [7]: saturation transfer among all protons of GaSal; β-galactosidase production ([2]; at 5 hours): increased β-galactosidase when compared to FeSal
